Assay results published in patent US11261201B2 (priority 2018, dated 2022).
≈ marks a conversion by molar mass, not a printed value. Structures can show the parent of a compound that is named as a salt. Where two headings read alike, the source gives them in different places.

Tests used:
[1] = system: H37RvMA; assay: Tuberculosis Alamar Blue/Resazurin assay (MIC); type: cell-based; settings: Mycobacterium tuberculosis, H37RV, read-out: WT H37Rv MTB Activity
[2] = system: E. coli; assay: Gram negative MIC protocol (OD600, LB, 24 h); settings: Escherichia coli
Protocol: (§1) Overnight bacterial cultures were grown in LB with no added antibiotics at 37° C. with shaking. A 1:1000 dilution of these cultures into LB was exposed to concentration gradients of compounds in 96-well plates (100 μL per well assay volume). Resulting plates were incubated at 37° C. for 24 h without shaking, and OD600 was measured at the end of the incubation. MICs were determined as the lowest concentrations at which OD600 remained at baseline.

[3] = system: A. baumannii; assay: Gram negative MIC protocol (OD600, LB, 24 h); settings: Acinetobacter baumannii, read-out: MIC A. baumannii LB Media, A. baumannii, LB media, 24 h, OD600
Protocol: as §1

[4] = read-out: MIC E. coli delta-TolC LB Media, E. coli delta-TolC, LB media, OD600
[5] = read-out: MIC WT E. coli LB Media, WT E. coli, LB media, OD600
[6] = read-out: MIC E. coli delta-TolC LB Media, E. coli delta-TolC strain, LB media, 24 h, OD600
[7] = read-out: MIC WT E. coli LB Media, wild-type E. coli, LB media, 24 h, OD600

Structure (SMILES)	MIC ([1]; WT H37Rv MTB) [µM]	MIC [2, 4] [µM]	MIC [2, 5] [µM]	MIC [3] [µM]	MIC [2, 6] [µM]	MIC [2, 7] [µM]	MIC [1] [µM]
CC(CC1CCCCC1)NCc1ccccc1SCC1CN(C)C(=O)O1 (stereo not drawn) [B407, 5-(((2-(((1-cyclohexylpropan-2-yl)amino)methyl)phenyl)thio)methyl)-3-methyl oxazolidin-2-one]	> 150	7 (≈ 2.64 µg/mL)	150 (≈ 56.5 µg/mL)	> 150			
COC(=O)COc1ccccc1CNC(C)CC1CCCCC1 (stereo not drawn) [B362]	> 150			150 (≈ 47.9 µg/mL)	7 (≈ 2.24 µg/mL)	150 (≈ 47.9 µg/mL)	
CC(CC1CCCCC1)NCc1ccccc1OCC(=O)N(C)C (stereo not drawn) [B320]	> 150			> 150	20 (≈ 6.65 µg/mL)	> 150	
CC(CC1CCCCC1)NCc1ccccc1OCC(=O)N1CCOCC1 (stereo not drawn) [B309]	> 150			> 150	33 (≈ 12.4 µg/mL)	> 150	
CC1CCC(NC(=O)NS(=O)(=O)Cc2ccccc2CNC(C)CC2CCCCC2)CC1 (stereo not drawn) [B450, 1-(2-(((1-cyclohexylpropan-2-yl)amino)methyl)phenyl)-N-((4-methylcyclohexyl)carbamoyl)methanesulfonamide]	150 (≈ 69.6 µg/mL)	150 (≈ 69.6 µg/mL)	> 150	> 150			
O=C1CCc2ccccc2CN1CCC1CCCCC1 [B425, 2-(2-cyclohexylethyl)-1,2,4,5-tetrahydro-3H-benzo[c]azepin-3-one]	> 150	33 (≈ 8.96 µg/mL)	> 150	> 150			
CN1CC2CCC1C(CNCc1ccccc1)C2 (stereo not drawn) [B116]		> 150	> 150	> 150			> 150
c1ccc(CNCCC2CCCCO2)cc1 (stereo not drawn) [B222]	> 150			> 300	> 150	> 300	
CC(CC1CCCCC1)NCc1ccccc1OC1CC2CC1C1CCCC21 (stereo not drawn) [B393, 1-cyclohexyl-N-(2-((octahydro-1H-4,7-methanoinden-5-yl)oxy)benzyl)propan-2-amine]	20.2 (≈ 7.71 µg/mL)			150 (≈ 57.2 µg/mL)	7 (≈ 2.67 µg/mL)	> 150	
CCc1cnc(COc2ccccc2CNC(C)CC2CCCCC2)o1 (stereo not drawn) [B268]	91 (≈ 32.4 µg/mL)			> 150	7 (≈ 2.5 µg/mL)	> 150	
CC(Cc1ccc2ccccc2c1)NCc1ccccc1 (stereo not drawn) [B106]		> 150	> 150	> 150			150 (≈ 41.3 µg/mL)
COc1ccc(CNCCC2=CCCCC2)cc1 [B12]	> 150	> 150	> 150	> 150			
CCc1noc(COc2ccccc2CNC(C)CC2CCCCC2)n1 (stereo not drawn) [B324]	> 150			> 150	7 (≈ 2.5 µg/mL)	> 150	
Fc1ccc(C2CC2NCc2ccccc2)cc1F (stereo in doubt) [B211, (1S,2R)-N-benzyl-2-(3,4-difluorophenyl)cyclopropanamine hydrochloride]				300	300	> 300	> 150
CS(=O)(=O)Cc1ccccc1CNCCC1CCCCC1 [B346]	> 150			12 (≈ 3.71 µg/mL)	4 (≈ 1.24 µg/mL)	> 150	
CCC1CCCCC1Oc1ccccc1CNC(C)CC1CCCCC1 (stereo not drawn) [B392, 1-cyclohexyl-N-(2-((2-ethylcyclohexyl)oxy)benzyl)propan-2-amine]	33.4 (≈ 11.9 µg/mL)			150 (≈ 53.6 µg/mL)	7 (≈ 2.5 µg/mL)	> 150	
CC1CC1C(C)NCc1ccccc1 (stereo not drawn) [B69]	> 150	> 150	> 150	> 150			
COc1cc(CC(C)NCc2ccccc2)ccn1 (stereo not drawn) [B85]		> 150	> 150	> 150			> 150
FC(F)(F)C(CC1CCCCC1)NCc1ccccc1 (stereo not drawn) [B177]	> 150	> 300	> 300	> 300			
C[C@H](NCc1ccccc1)C12CC3CC(CC(C3)C1)C2 [B197]	> 150	96 (≈ 25.9 µg/mL)	170 (≈ 45.8 µg/mL)	300 (≈ 80.8 µg/mL)			
CC(CC1CCCCC1)NCc1ccccc1OCCO (stereo not drawn) [B337]	> 150			150 (≈ 43.7 µg/mL)	4 (≈ 1.17 µg/mL)	55 (≈ 16 µg/mL)	
